{
  "source": "patent US7208506B2",
  "about": "“Heteroarylethenyl derivatives, their manufacture and use as pharmaceutical agents” (Hoffmann-La Roche Inc., priority 2005, dated 2007)",
  "note": "Where a name gives a salt, the structure may show the parent alone.",
  "data": [
    {"system": "HCT 116 cells", "assay": "CellTiter-Glo Luminescent Cell Viability Assay in HCT 116 cells", "format": "cell-based", "details": "Homo sapiens, HCT-116, 120 h, HCT 116 human colon carcinoma cell viability, 120 h (5 days) incubation, 10 concentrations 30 μM to 0.0015 μM, triplicate", "description": "CellTiter-Glo™ Assay in HCT 116 Cells\nThe CellTiter-Glo™ Luminescent Cell Viability Assay (Promega) is a homogeneous method of determining the number of viable cells in culture based on quantitation of the ATP present, which signals the presence of metabolically active cells.\nHCT 116 cells (human colon carcinoma, ATCC-No. CCl1-247) were cultivated in RPMI 1640 medium with GlutaMAX™ I (Invitrogen, Cat-No. 61870-010), 2.5% Fetal Calf Serum (FCS, Sigma Cat-No. F4135 (FBS)); 100 Units/ml penicillin/100 μg/ml streptomycin (=Pen/Strep from Invitrogen Cat. No. 15140). For the assay the cells were seeded in 384 well plates, 1000 cells per well, in the same medium. The next day the test compounds were added in various concentrations ranging from 30 μM to 0.0015 μM (10 concentrations, 1:3 diluted). After 5 days the CellTiter-Glo™ assay was done according to the instructions of the manufacturer (CellTiter-Glo™ Luminescent Cell Viability Assay, from Promega). In brief: the cell-plate was equilibrated to room temperature for approximately 30 minutes and than the CellTiter-Glo™ reagent was added. The contents were carefully mixed for 15 minutes to induce cell lysis. After 45 minutes the luminescent signal was measured in Victor 2, (scanning multiwell spectrophotometer, Wallac).\nMedium: RPMI 1640 with GlutaMAX™ I (Invitrogen, Cat-Nr. 61870), 5% FCS (Sigma Cat.-No. F4135), Pen/Strep (Invitrogen, Cat No. 15140).\nHCT116 (ATCC-No. CCl-247): 1000 cells in 60 μl per well of 384 well plate (Greiner 781098, μClear-plate white)\nAfter seeding incubate plates 24 h at 37° C., 5% CO2\n2nd. Day: Induction (Treatment with Compounds, 10 Concentrations):\nIn order to achieve a final concentration of 30 μM as highest concentration 3,5 μl of 10 mM compound stock solution were added directly to 163 μl media. Then step e) of the dilution procedure described below, was followed.\nIn order to achieve the second highest to the lowest concentrations, a serial dilution with dilution steps of 1:3 was followed according to the procedure (a–e) as described here below: • a) for the second highest concentration add 10 μl of 10 mM stock solution of compound to 20 μl dimethylsulfoxide (DMSO) • b) dilute 8×1:3 (always 10 μl to 20 μl DMSO) in this DMSO dilution row (results in 9 wells with concentrations from 3333.3 μM to 0.51 μM) • c) dilute each concentration 1: 47.6 (3.5 μl compound dilution to 163 μl media) • e) add 10 μl of every concentration to 60 μl media in the cell plate resulting in final concentration of DMSO : 0.3% in every well and resulting in 10 final concentration of compounds ranging from 30 μM to 0.0015 μM. • Each compound is tested in triplicate. • Incubate 120 h (5 days) at 37° C., 5% CO2\nAnalysis: • Add 30 μl CellTiter-Glo™ Reagent per well, • shake 15 minutes at room temperature • incubate further 45 minutes at room temperature without shaking\nMeasurement: • Victor 2 scanning multiwell spectrophotometer (Wallac), Luminescence mode (0.5 sec/read, 477 nm) • Determine IC50 using a non-linear curve fit (XLfit software (ID Business Solution Ltd., Guilford, Surrey, UK))", "units": {"IC50": "µM"}, "values": [
      {"compound": "Cc1ccc(C(=O)NS(=O)(=O)/C=C/c2cccs2)c(C)c1", "note": "[Example 3-13, (E)-2-Thiophen-2-yl-ethenesulfonic acid 2,4-dimethyl-benzoylamide; sodium salt]", "IC50": "0.5 to 15"},
      {"compound": "Cc1ccc(C(=O)NS(=O)(=O)/C=C/c2ccsc2)c(C)c1", "note": "[Example 3-14, (E)-2-Thiophen-3-yl-ethenesulfonic acid 2,4-dimethyl-benzoylamide; sodium salt]", "IC50": "0.5 to 15"},
      {"compound": "COc1cc(Cl)ccc1C(=O)NS(=O)(=O)/C=C/c1cccnc1", "note": "[Example 4-1, (E)-2-Pyridin-3-yl-ethenesulfonic acid 4-chloro-2-methoxy-benzoylamide; sodium salt]", "IC50": "0.5 to 15"},
      {"compound": "Cc1cc(Cl)ccc1C(=O)NS(=O)(=O)/C=C/c1ccccn1", "note": "[Example 4-2, (E)-2-Pyridin-2-yl-ethenesulfonic acid 4-chloro-2-methyl-benzoylamide; sodium salt]", "IC50": "0.5 to 15"},
      {"compound": "Cc1cc(Br)ccc1C(=O)NS(=O)(=O)/C=C/c1ccccn1", "note": "[Example 4-4, (E)-2-Pyridin-2-yl-ethenesulfonic acid 4-bromo-2-methyl-benzoylamide; sodium salt]", "IC50": "0.5 to 15"},
      {"compound": "O=C(NS(=O)(=O)/C=C/c1ccccn1)c1ccc(F)cc1Br", "note": "[Example 4-6, (E)-2-Pyridin-2-yl-ethenesulfonic acid 2-bromo-4-fluoro-benzoylamide; sodium salt]", "IC50": "0.5 to 15"},
      {"compound": "O=C(NS(=O)(=O)/C=C/c1ccccn1)c1ccc(Br)cc1Cl", "note": "[Example 4-7, (E)-2-Pyridin-2-yl-ethenesulfonic acid 4-bromo-2-chloro-benzoylamide; sodium salt]", "IC50": "0.5 to 15"},
      {"compound": "Cc1cc(Cl)ccc1C(=O)NS(=O)(=O)/C=C/c1cccnc1", "note": "[Example 4-8, (E)-2-Pyridin-3-yl-ethenesulfonic acid 4-chloro-2-methyl-benzoylamide; sodium salt]", "IC50": "0.5 to 15"},
      {"compound": "O=C(NS(=O)(=O)/C=C/c1cccnc1)c1ccc(Br)cc1Cl", "note": "[Example 4-11, (E)-2-Pyridin-3-yl-ethenesulfonic acid 4-bromo-2-chloro-benzoylamide; sodium salt]", "IC50": "0.5 to 15"},
      {"compound": "COc1ccc(/C=C/S(=O)(=O)NC(=O)c2ccc(Cl)cc2C)cn1", "note": "[Example 4-12, (E)-2-(6-Methoxy-pyridin-3-yl)-ethenesulfonic acid 4-chloro-2-methyl-benzoylamide; sodium salt]", "IC50": "0.5 to 15"},
      {"compound": "Cc1cccc(/C=C/S(=O)(=O)NC(=O)c2ccc(F)cc2Br)n1", "note": "[Example 4-15, (E)-2-(6-Methyl-pyridin-2-yl)-ethenesulfonic acid 2-bromo-4-fluoro-benzoylamide; sodium salt]", "IC50": "0.5 to 15"},
      {"compound": "Cc1ccc(C(=O)NS(=O)(=O)/C=C/c2cccnc2)c(C)c1", "note": "[Example 4-16, (E)-2-Pyridin-3-yl-ethenesulfonic acid 2,4-dimethyl-benzoylamide; sodium salt]", "IC50": "0.5 to 15"},
      {"compound": "Cc1ccc(C(=O)NS(=O)(=O)/C=C/c2ccncc2)c(C)c1", "note": "[Example 4-17, (E)-2-Pyridin-4-yl-ethenesulfonic acid 2,4-dimethyl-benzoylamide; sodium salt]", "IC50": "0.5 to 15"},
      {"compound": "Cc1cc(Cl)ccc1C(=O)NS(=O)(=O)/C=C/c1csc2ccccc12", "note": "[Example 4-18, (E)-2-Benzo[b]thiophen-3-yl-ethenesulfonic acid 4-chloro-2-methyl-benzoylamide; sodium salt]", "IC50": "0.5 to 15"},
      {"compound": "O=C(NS(=O)(=O)/C=C/c1csc2ccccc12)c1ccc(F)cc1Br", "note": "[Example 4-19, (E)-2-Benzo[b]thiophen-3-yl-ethenesulfonic acid 2-bromo-4-fluoro-benzoylamide; sodium salt]", "IC50": "0.5 to 15"},
      {"compound": "Cc1cc(F)ccc1C(=O)NS(=O)(=O)/C=C/c1cccs1", "note": "[Example 5-1, (E)-2-Thiophen-2-yl-ethenesulfonic acid 4-fluoro-2-methyl-benzoylamide]", "IC50": "0.5 to 15"}
    ]}
  ]
}
